Experimental data taken from ChEMBL document CHEMBL1156345, “Suillusin, a unique benzofuran from the mushroom Suillus granulatus” (J Nat Prod, 2001).
≈ marks a conversion by molar mass, not a printed value. Calls of active or inactive are those of the source. The calls are words filed in the database; no cut-off is given here.

Key:
[1] = test system: Radical scavenging activity; experiment: Antioxidant activity assessed as DPPH radical scavenging activity at 100 ug/mL; assay type: functional
UACC-62 = experiment: Cytotoxicity against human UACC62 cells after 48 hrs by SRB assay; assay type: functional, cell-based; details: UACC-62, 48 h
SW-620 = experiment: Cytotoxicity against human SW620 cells after 48 hrs by SRB assay; assay type: functional, cell-based; details: SW-620, 48 h
HCT-15 = experiment: Cytotoxicity against human HCT15 cells at 30 ug/mL after 48 hrs by SRB assay; assay type: functional, cell-based
A549 = experiment: Cytotoxicity against human A549 cells at 30 ug/mL after 48 hrs by SRB assay; assay type: functional, cell-based
SK-OV-3 = experiment: Cytotoxicity against human SKOV3 cells at 30 ug/mL after 48 hrs by SRB assay; assay type: functional, cell-based
PC-3 = experiment: Cytotoxicity against human PC3 cells at 30 ug/mL after 48 hrs by SRB assay; assay type: functional, cell-based

COC(=O)[C@@]12Oc3ccc(O)cc3[C@@H]1C(=O)C(O)=C2c1ccc(O)c(O)c1 [SUILLUSIN]
Activity [1]: 30% | IC50 (UACC-62): 12 µg/mL (≈ 32.4 µM) | IC50 (SW-620): 20 µg/mL (≈ 54 µM) | Activity (HCT-15): Active | Activity (A549): Active | Activity (SK-OV-3): Active | Activity (PC-3): Active

VITAMIN E
Activity [1]: 73%
